US9333210B2, “Medicine composition containing vitamin D and metformin” (GUANGDONG TAIHE MEDICINE SCIENCE & TECHNOLOGY CO., LTD, priority 2011, dated 2016)
Counter-ions that a name gives are not always drawn.

Legend:
[1] = tested on: Wistar rats with dimethyl hydrazine-induced colorectal cancer; experiment: Aberrant crypt foci (ACF) count in dimethyl hydrazine-induced colorectal cancer rats (Example 1); assay type: in vivo; conditions: for ACF AC = 1 / ACF AC = 2 / ACF AC = 3 / ACF AC ≧ 4 / The total number of ACF: DMH rats, week 18; for inhibitory effect on ACF, trend with dose: low, medium, high dose groups, end of week 18
From the text: (§1) Wistar rats with dimethyl hydrazine-induced colorectal cancer were used as the model to study the chemoprevention by the combined administration of vitamin D3 and metformin hydrochloride for colorectal cancer and the effect on colorectal cancer.
(§2) Experimental animals were randomly divided into 11 groups (each group having 10), including blank control group, model control group, low, medium and high dose groups of vitamin D3, low, medium and high dose groups of metformin, and three groups of different doses of vitamin D3 in combination with metformin. Except for the blank control group, other groups were subcutaneously injected with dimethyl hydrazine once a week respectively for 18 weeks, to induce colorectal cancer model. Dimethylhydrazine was dissolved in sodium chloride injection, and into the solution, 5% NaOH solution was added to adjust pH to 6.5-7.0, thereby obtaining a 20 mg/ml solution. The resulting solution was filtered through 0.22 μm membrane, and prepared extemporaneously.
(§3) Vitamin D3 was prepared into 10-100 U/ml solution by using soybean oil, and intragastrically administrated, once a day. Metformin was prepare into 10-100 mg/ml solution, and administrated intragastrically, once a day. The above drugs were administrated from day 0.
(§4) All the animals were sacrificed at the end of 18th weeks after administration. Body weights were recorded once a week during the experiment, and the administrated dose was calculated based on the body weight. The animals that died during the experiment were dissected and observed.
(§5) 3.2.2 The large intestine was separated immediately after the animals were sacrificed, the contents of the intestine were washed away with saline, and colorectal tumors were visually observed to calculate the number of tumors. The entire colon was paved between two layers of filter paper, placed in 10% neutral formalin and fixed for 24-48 h. The fixed large intestine tissue was put into 0.2% methylene blue and stained for 10 s. The aberrant crypt foci (ACF) of the whole large intestine were immediately observed under an optical microscope, and the number of the aberrant crypt in foci was counted respectively as one, two, three and four as well as greater than four.
(§6) 3.2.3 The data were processed by using Excel 2003 software for statistical analysis, and the obtained data were represented by mean±standard deviation (mean±SD). P<0.05 means that there is statistically significant difference between two groups.

[2] = tested on: Wistar rats with dimethyl hydrazine-induced colorectal cancer; experiment: Tumorigenesis and tumor inhibition rate in dimethyl hydrazine-induced colorectal cancer rats (Example 1); assay type: in vivo; conditions: for Mean number of tumors / Number of Animals with tumor: DMH rats; for Mean number of tumors / Number of Animals with tumor / Inhibition rate(%): week 18; for Number of Animals with tumor: of 10 animals; for Inhibition rate(%): tumor number vs model control
From the text: as §1, §2, §3, §4, §5, §6

[3] = tested on: Wistar rats with dimethyl hydrazine-induced colorectal cancer; experiment: Tumorigenesis and inhibition rate, drugs administrated from day 15 (Example 9); assay type: in vivo; conditions: drugs from day 15
Description: Example 1 was repeated, except that: The experimental animals were randomly divided into 11 groups, with 8 in each group. Except for the blank control group, other groups were subcutaneously injected of dimethylhydrazine once a week for 18 weeks to induce colorectal cancer model. Vitamin D3 was prepared into 10-100 U/ml solution by using soybean oil, and intragastrically administrated, once a day. Metformin was prepare into 10-100 mg/ml solution, and administrated orally, once a day. The above drugs were administrated from day 15 (after two weeks). During the experiments, tumorigenesis and inhibition rate were observed.

[4] = General situation and body weight of the rats (Example 1); conditions: DMH rats; for Weight gain: after 18 weeks; for Body weight Week 0: baseline
From the text: as §2, §3, §4
3.2.1 The animals were observed daily to record the general conditions, such as mental activity, food-taking, feces, hair, and the like.

[5] = high dose group, metformin hydrochloride 360 mg/kg intragastrically once a day
[6] = low dose group, metformin hydrochloride 40 mg/kg intragastrically once a day
[7] = medium dose group, metformin hydrochloride 120 mg/kg intragastrically once a day
[8] = low, medium, high dose groups, end of week 18
[9] = high dose group, Vitamin D 300 U/kg intragastrically once a day
[10] = low dose group, Vitamin D 30 U/kg intragastrically once a day
[11] = medium dose group, Vitamin D 100 U/kg intragastrically once a day
[12] = medium dose group and high dose group, P<0.01

In the case of `CN(C)C(=N)N=C(N)N` [metformin, metformin hydrochloride], the “ACF AC = 1” value [1, 5] is reported as 61.5 ± 8.1, the “ACF AC = 2” value [1, 5] is reported as 13.8 ± 3.4 and the “ACF AC = 3” value [1, 5] is reported as 4.0 ± 1.2. For the same molecule, the “ACF AC ≧ 4” value [1, 5] was 9.7 ± 3.2, the “The total number of ACF” value [1, 5] was 89.0 ± 12.7 and the “ACF AC = 1” value [1, 6] was 70.4 ± 10.6. For the same molecule, the “ACF AC = 2” value [1, 6] was 16.7 ± 3.6, the “ACF AC = 3” value [1, 6] was 6.7 ± 1.7 and the “ACF AC ≧ 4” value [1, 6] was 16.5 ± 2.1. For the same molecule, the “The total number of ACF” value [1, 6] was 110.3 ± 13.0, the “inhibitory effect on ACF, trend with dose” value [1] was “same trend” and the “ACF AC = 1” value [1, 7] was 57.0 ± 10.7. The “ACF AC = 2” value [1, 7] was 16.6 ± 1.8, the “ACF AC = 3” value [1, 7] was 5.4 ± 1.6 and the “ACF AC ≧ 4” value [1, 7] was 14.8 ± 3.0. For the same molecule, the “The total number of ACF” value [1, 7] was 93.8 ± 11.7, the “Mean number of tumors” value [2, 5] was 1.6 ± 0.5 and the “Mean number of tumors” value [2, 6] was 2.0 ± 0.7. For the same molecule, the “number of tumors, trend with dose” value [2, 8] was “reduced with the increase of dose”, the “Mean number of tumors” value [2, 7] was 1.8 ± 0.4 and the “Number of Animals with tumor” value [2, 5] was 10. The “Number of Animals with tumor” value [2, 6] was 10, the “Number of Animals with tumor” value [2, 7] was 10 and the “Inhibition rate(%)” value [2, 5] was 42.9%. The “Inhibition rate(%)” value [2, 6] was 28.6%, the “Inhibition rate(%)” value [2, 7] was 35.7% and the “number of tumors, trend with dose” value ([3]; end of week 18) was “reduced with the increase of dose”.

In the case of `C=C1CC[C@H](O)C/C1=C/C=C1\CCC[C@]2(C)[C@@H]([C@H](C)CCCC(C)C)CC[C@@H]12` [vitamin D3, Vitamin D3], the “ACF AC = 1” value [1, 9] is reported as 61.8 ± 11.1, the “ACF AC = 2” value [1, 9] is reported as 14.9 ± 5.9 and the “ACF AC = 3” value [1, 9] is reported as 5.0 ± 1.6. For the same molecule, the “ACF AC ≧ 4” value [1, 9] was 9.8 ± 2.2, the “The total number of ACF” value [1, 9] was 91.5 ± 7.2 and the “ACF AC = 1” value [1, 10] was 80.5 ± 7.6. The “ACF AC = 2” value [1, 10] was 16.1 ± 5.7, the “ACF AC = 3” value [1, 10] was 9.0 ± 2.3 and the “ACF AC ≧ 4” value [1, 10] was 20.0 ± 4.1. For the same molecule, the “The total number of ACF” value [1, 10] was 125.6 ± 12.1, the “inhibitory effect on ACF, trend with dose” value [1] was “increased with the increase of dose” and the “ACF AC = 1” value [1, 11] was 67.9 ± 11.8. The “ACF AC = 2” value [1, 11] was 15.9 ± 5.7, the “ACF AC = 3” value [1, 11] was 4.8 ± 3.1 and the “ACF AC ≧ 4” value [1, 11] was 16.1 ± 2.9. For the same molecule, the “The total number of ACF” value [1, 11] was 104.7 ± 14.3, the “Mean number of tumors” value [2, 9] was 1.4 ± 0.8 and the “Mean number of tumors” value [2, 10] was 2.3 ± 0.5. The “inhibition rate for tumor, trend with dose” value [2, 8] was “increased with the increase of dose”, the “number of tumors compared with the model control group” value [2, 12] was “significantly reduced” and the “Mean number of tumors” value [2, 11] was 1.7 ± 0.7. The “Number of Animals with tumor” value [2, 9] was 8, the “Number of Animals with tumor” value [2, 10] was 10 and the “Number of Animals with tumor” value [2, 11] was 10. For the same molecule, the “Inhibition rate(%)” value [2, 9] was 50.0%, the “Inhibition rate(%)” value [2, 10] was 17.9% and the “Inhibition rate(%)” value [2, 11] was 39.3%. For the same molecule, the Weight gain [4, 9] was 225.7%, the Weight gain [4, 10] was 227.7% and the Weight gain [4, 11] was 235.7%. For the same molecule, the “Body weight Week 18” value [4, 9] was 328.8 ± 23.6, the “Body weight Week 0” value [4, 9] was 101.5 ± 5.2 and the “Body weight Week 18” value [4, 10] was 377.5 ± 27.5. For the same molecule, the “Body weight Week 0” value [4, 10] was 100.3 ± 4.1, the “Body weight Week 18” value [4, 11] was 294.3 ± 22.1 and the “Body weight Week 0” value [4, 11] was 102.9 ± 5.8. For the same molecule, the “inhibition rate for tumor, trend with dose” value ([3]; end of week 18) was “increased with the increased of dose” and the “tumor number compared with the model control group” value [3, 12] was “significantly reduced”.
